Reference: PubChem BioAssay (NCI)
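Growth conditions: 96-well plates. Treatment: test compound, 48 hours, 5 concentrations. Analysis: linear interpolation between bracketing concentrations; unreached endpoints set to highest concentration. Here, GI50 denotes the concentration required for 50% inhibition of growth. Definition used: TGI = concentration required for complete inhibition of growth.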

Tests used:
Experiment in all cases: NCI tumour cell line growth inhibition, 48 h
[1] = system: MDA-N
[2] = system: DMS 273 small cell lung
[3] = system: RXF-631 renal
[4] = system: DMS 114 small cell lung
[5] = system: XF 498 CNS
[6] = system: LXFL 529 NSCLC
[7] = system: KM20L2 colon
[8] = system: HOP-18 NSCLC
[9] = system: DLD-1 colon
[10] = system: P388 leukemia
[11] = system: SN12K1 renal
[12] = system: P388/ADR leukemia

SMILES	TGI [1] [µM]	TGI [2] [µM]	TGI [3] [µM]	TGI [4] [µM]	TGI [5] [µM]	TGI [6] [µM]	TGI [7] [µM]	TGI [8] [µM]	TGI [9] [µM]	other results
COc1cc(-c2oc3c(OC)c(O)c(OC)c(O)c3c(=O)c2OC)cc(OC)c1OC	> 100	–	–	–	–	–	–	–	–	–
C=C(C)COc1ccc2c(c1)CCC1C2CCC2(C)C(=O)/C(=N/O)CC12 (centres undefined)	14.7	–	–	–	–	–	–	–	–	–
COc1cc(C2C(C(=O)NCc3ccccc3)=C(C)NC(C)=C2C(=O)NCc2ccccc2)ccc1O	–	> 100	> 100	> 100	> 100	> 100	> 100	–	–	–
O=C1CCc2cc(Br)ccc2O1	> 100	–	–	–	–	–	–	–	–	–
O=C(c1ccccc1)n1cc(/C=C/[N+](=O)[O-])c2ccccc21	–	55.1	48.2	38	78.5	35.1	–	> 100	33.5	–
CC[O-].CC[O-].O=C1C=C([O-])C(=O)c2ccccc21.O=C1C=C([O-])C(=O)c2ccccc21.[Ti+4]	–	> 100	–	–	> 100	> 100	> 100	> 100	> 100	GI50 [2]: > 63.5 µM; GI50 [5]: > 100 µM; GI50 [8]: > 100 µM; GI50 [6]: 83.3 µM; GI50 [9]: > 100 µM; GI50 [7]: 84.7 µM
CCN(N=O)C1C2(CCCC2)NC(=O)C12CCCC2 (centres undefined)	–	–	> 100	> 100	> 100	> 100	> 100	> 100	> 100	–
COc1ccc(OC(=O)N2C/C(=C\c3ccccc3)C(=O)/C(=C/c3ccccc3)C2)cc1	3.47	6.28	–	–	–	6.92	17	49.5	5.29	–
CCCCCc1cc(/C=C2/N=C(c3ccc[nH]3)C=C2OC)[nH]c1C	0.155	–	–	–	–	–	–	–	–	–
C#CN1C(=O)c2c(c(-c3ccccc3)c(-c3ccc(Oc4ccc(-c5c(-c6ccccc6)c6c(c(-c7ccccc7)c5-c5ccccc5)C(=O)N(C#C)C6=O)cc4)cc3)c(-c3ccccc3)c2-c2ccccc2)C1=O	–	> 100	–	> 100	72.8	–	> 100	–	> 100	–
O=C(O)C1=Cc2cccc3cccc(c23)C1=O	–	> 100	–	> 100	–	> 100	> 100	> 100	> 100	–
O=C(O)CN1C(=O)OC(c2ccccc2)C1=O (centres undefined)	> 100	–	–	–	–	–	–	–	–	–
CCCCCCCCCCCCC(O)C1CCC(C(O)CCCCC(O)CCCCCC2CC(CC(C)=O)C(=O)O2)O1 (centres undefined)	4.81	13	16.7	7.78	8.44	16.3	19.7	23.3	21	–
CCOC(=O)CCc1c(C)c2c(OC)cc(OC)cc2oc1=O	–	> 100	–	–	93.8	> 100	> 100	99	> 100	–
OC1(C(Sc2ccccc2)Sc2ccccc2)CCCCCC1	–	76.5	–	68.9	35.7	–	9.27	–	> 100	–
COc1ccccc1/C=C1\CCC(Cc2ccccc2)(CN(C)C)C1=O (centres undefined)	3.12	2.48	9.92	> 36.2	> 72.6	> 52.3	2.34	> 100	> 80.4	–
NNC(=O)/C(NC(=O)c1ccccc1)=C(\N)c1cccc([N+](=O)[O-])c1	–	> 100	> 100	> 100	> 100	> 100	–	> 100	> 100	–
O=C(CCN1CCCCC1)c1csc2ccccc12	> 100	–	–	–	–	–	–	–	–	–
Cc1ccccc1N(CCC#N)C1=NN(C(=O)CC(=O)Nc2ccc(Cl)cc2)C(c2ccccc2)C1 (centres undefined)	–	> 100	> 100	> 100	–	> 100	> 100	> 100	> 100	–
CC(C)(C)N1CC1CNC(=O)C(=O)NCC1CN1C(C)(C)C (centres undefined)	> 92.9	0.517	–	2.49	1.31	–	5.96	–	–	–
O=c1cccccc1[O-].O=c1cccccc1[O-].O=c1cccccc1[O-].[Nd+3]	–	> 100	–	–	–	–	> 100	–	> 100	GI50 [2]: 14.3 µM; GI50 [9]: 36.4 µM; GI50 [7]: 31.7 µM
CC(=O)OCc1nnn2c1C(OC(C)=O)CC2 (centres undefined)	–	> 100	> 100	> 100	> 100	> 100	> 100	–	> 100	–
CNC(=O)/C=C/C1=CN2C(=O)c3ccc(C)c(O)c3NC(OC)C2C1 (centres undefined)	< 0.0211	–	–	–	–	–	–	–	–	–
C[C@@H](NC1CCCC[C@@H]1O)c1ccccc1 (some centres undefined)	–	> 100	–	–	> 100	> 100	> 100	> 100	> 100	–
OC1CC(O)O[C@H](c2ccccc2)C1 (some centres undefined)	–	> 100	–	–	–	> 100	> 100	> 100	> 100	–
Cc1[nH]c(=O)n2c(C)nnc2c1C(=O)O	–	–	–	> 100	> 100	> 100	–	–	> 100	–
CC(=O)OC(C(=O)[O][Ge]([CH3])([CH3])[CH3])c1ccccc1 (centres undefined)	–	–	–	> 100	–	> 100	> 100	> 100	> 100	GI50 [4]: > 100 µM; GI50 [8]: > 100 µM; GI50 [6]: > 100 µM; GI50 [9]: > 100 µM; GI50 [7]: > 100 µM
CC(=O)OC1C(O)C(C)OC(OC2C(OC(=O)C3CCC4C(C3)OC3(CC(OC(=O)/C=C/c5ccccc5)C(C)CO3)C43CO3)OC(C)C(O)C2OC(C)=O)C1O (centres undefined)	0.0182	0.111	–	0.0727	0.0896	–	0.21	0.413	> 1.5	TGI [10]: 0.279 µM; TGI [11]: 0.0583 µM; TGI [12]: > 2.5 µM
CC1=C2CC[C@@]3(C)C(=CCC3O)C2(C)CCC1=O (some centres undefined)	–	> 100	> 100	> 100	–	> 100	> 100	> 100	> 100	–
